Experimental findings from ChEMBL document CHEMBL1201862, “PubChem BioAssay data set” (2004) are described below.

Among the test systems are HOP-18; DMS-114; LXFL 529; SNB-78; M19-MEL; DMS-273; KM-20L2; RXF 631; XF498.
What all share (assay): inhibition of tumour cell growth, NCI panel, 48 h

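How tested: cells in 96-well plates exposed to compound for 48 hours at five concentrations. GI50 marks 50% less growth.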 Activity calls are given as the source filed them. Rule as the data show it: active = GI50 up to about 1.1 µM and inactive = higher.

Consider `Cc1ccc(NC(=O)CSc2nnc(Cc3ccccc3)o2)cc1`, for which the GI50 with HOP-18 was > 100 µM (inactive); in the test with DMS-114, 53.2 µM (inactive); in the test with LXFL 529 it was > 100 µM (inactive); in the test with SNB-78, > 100 µM (inactive); in the test on M19-MEL it was > 100 µM (inactive); in the test on DMS-273, > 100 µM (inactive). The GI50 in the test on KM-20L2 was > 100 µM (inactive).
For the molecule `COC(=O)C(=O)Cc1nc2ccccc2s1`, the GI50 with HOP-18, in the test with DMS-114, in the test on LXFL 529, with SNB-78, in the test on M19-MEL and in the test on DMS-273 was > 100 µM (inactive) throughout. In addition, the GI50 in the test on KM-20L2 was > 100 µM (inactive).
Consider `Cc1ccc(S(=O)(=O)NC(C)C(=O)O)cc1` (stereo unspecified), for which the GI50 in the test with HOP-18, in the test with RXF 631, in the test with XF498, in the test on LXFL 529, with M19-MEL and in the test on DMS-273 was > 100 µM (inactive) each time. The GI50 with KM-20L2 is > 100 µM (inactive).
For `COc1cc2ccc3c4cc(OC)c(OCc5ccccc5)cc4cnc3c2cc1OC`, the GI50 with DMS-114, in the test on XF498, in the test with LXFL 529, in the test on SNB-78, in the test on M19-MEL and with KM-20L2 was > 100 µM (inactive) in each case.
As for `Cc1c(/C=N/NS(=O)(=O)c2ccccc2)no[n+]1[O-]`, the GI50 in the test with HOP-18, in the test with DMS-114, in the test with LXFL 529 and with KM-20L2 was > 100 µM (inactive) throughout.
With `Cn1c(O)c(C(=O)NC2CCCCC2)c(=O)n(C)c1=S`, the GI50 was 3.6 µM (inactive) in the test with HOP-18, 4.91 µM (inactive) in the test with RXF 631, 2.78 µM (inactive) with LXFL 529 and 8.04 µM (inactive) in the test with KM-20L2.
Take `COC(=O)C(=O)C(C(=O)C=C(C)C)C(=O)C(=O)Nc1cccc(C(C)=O)c1` (stereo unspecified): the GI50 in the test on HOP-18, in the test on DMS-114, in the test on RXF 631, in the test on XF498, in the test on LXFL 529 and with SNB-78 was > 100 µM (inactive) each time. Also, the GI50 in the test on M19-MEL, in the test on DMS-273 and in the test on KM-20L2 was > 100 µM (inactive) throughout.
For the molecule `CCNc1nnc(CSc2nc(-c3ccccc3)c(-c3ccccc3)[nH]2)s1`, the GI50 was 20.7 µM (inactive) in the test on DMS-114; 24.7 µM (inactive) with LXFL 529; 30.8 µM (inactive) in the test with SNB-78; 16.3 µM (inactive) in the test on M19-MEL; 22.2 µM (inactive) in the test with DMS-273; 27.8 µM (inactive) in the test on KM-20L2.
As to `CCCCCCCCC/C=C/C=C/C(=O)NCC(=O)NC1C(O)C(O)C(Nc2ncnc3[nH]cnc23)OC1C(O)CO` (stereo unspecified), the GI50 in the test on DMS-114 was 0.0551 µM (active); in the test with LXFL 529 it was 0.00838 µM (active); in the test with M19-MEL, 0.001 µM (active); in the test on DMS-273, 0.001 µM (active); in the test with KM-20L2 it was 0.001 µM (active).
As for `CCc1cccc(CC)c1NC(=O)C1=CNC(C)=C(C(=O)Nc2c(CC)cccc2CC)C1c1ccc(O)c(OC)c1` (stereo unspecified), the GI50 was 24.5 µM (inactive) in the test with DMS-114; 37.9 µM (inactive) in the test with RXF 631; 26.6 µM (inactive) with XF498; 27.1 µM (inactive) in the test with LXFL 529; 28.7 µM (inactive) in the test on SNB-78; 34.4 µM (inactive) in the test on M19-MEL. The GI50 in the test with KM-20L2 is 49.5 µM (inactive).
Turning to `O=C1CC(c2c(-c3ccccc3)[nH]c3ccccc23)C(=O)N1` (stereo unspecified), the GI50 in the test with DMS-114, with RXF 631, with XF498, with LXFL 529, with SNB-78 and in the test with M19-MEL was > 100 µM (inactive) throughout. Further, the GI50 in the test on DMS-273 and in the test with KM-20L2 was > 100 µM (inactive) in each case.
On to `O=C1C=CC(S(=O)(=O)C2=C/C(=C/Nc3ccc(Cl)cc3)C(=O)C=C2)=C/C1=C/Nc1ccc(Cl)cc1`, for which the GI50 in the test on HOP-18, in the test on DMS-114, with RXF 631, in the test with LXFL 529, with M19-MEL and in the test with DMS-273 was > 100 µM (inactive) throughout. The GI50 in the test with KM-20L2 is > 100 µM (inactive).
Consider `Cc1ccc(S(=O)(=O)N2c3ccccc3[C@H]3CCC=C[C@H]32)cc1`, for which the GI50 in the test on HOP-18 was 59.3 µM (inactive); in the test on DMS-114, 3.12 µM (inactive); in the test on RXF 631, 10.8 µM (inactive); with XF498, 8.65 µM (inactive); with LXFL 529, 9.55 µM (inactive); in the test with SNB-78, 19.2 µM (inactive). In addition, the values for the GI50 with M19-MEL, in the test with DMS-273 and in the test on KM-20L2 were 4.68 µM (inactive), 3.66 µM (inactive) and 3.18 µM (inactive), respectively.
In the case of `FC(F)(F)C12C34C=CC5(CCC6(C=CC1(CC3)O6)C52C(F)(F)F)O4` (stereo unspecified), the GI50 in the test on HOP-18, in the test on XF498, in the test with LXFL 529, in the test on SNB-78, with M19-MEL and in the test on DMS-273 was > 100 µM (inactive) throughout. The GI50 in the test with KM-20L2 is > 100 µM (inactive).
Consider `Nc1ccc(-c2cc(C(=O)Nc3nccs3)nc(S)n2)cc1`, for which the GI50 with HOP-18 was 61.1 µM (inactive); with DMS-114 it was > 100 µM (inactive); in the test on XF498, > 100 µM (inactive); in the test on LXFL 529, > 100 µM (inactive); in the test on SNB-78 it was > 100 µM (inactive); with M19-MEL, > 100 µM (inactive). In addition, the GI50 in the test on KM-20L2 is > 100 µM (inactive).
`CCOc1ccccc1NC(=O)CCc1nnc2s/c(=C\CCc3ccccc3)c(=O)n12`: the GI50 in the test with DMS-114, with XF498, with LXFL 529, with SNB-78, with M19-MEL and in the test with DMS-273 was > 100 µM (inactive) throughout. For the same molecule, the GI50 with KM-20L2 was > 100 µM (inactive).
In the case of `CN1C(=O)N(C)C(N2CCCC2)c2c1nc1ccccn1c2=O` (stereo unspecified), the GI50 is > 100 µM (inactive) with HOP-18; 56.2 µM (inactive) with DMS-114; 77.8 µM (inactive) with XF498; 63.5 µM (inactive) in the test on LXFL 529; 57.4 µM (inactive) in the test on SNB-78; 92.5 µM (inactive) in the test on M19-MEL. The figures for the GI50 in the test with DMS-273 and in the test with KM-20L2 were 43.4 µM (inactive) and > 100 µM (inactive), respectively.
`Nc1nc(-c2ccccc2)c(Cl)c(-c2cc(Cl)ccc2O)n1`: the GI50 in the test on HOP-18 is 42.3 µM (inactive); in the test with DMS-114, 26.7 µM (inactive); in the test on RXF 631, 97.7 µM (inactive); in the test with XF498, 28.8 µM (inactive); in the test on LXFL 529, 25.9 µM (inactive); with SNB-78, 28.1 µM (inactive). For the same molecule, the GI50 in the test with M19-MEL is > 72.1 µM (inactive); in the test on DMS-273, 29.7 µM (inactive); in the test on KM-20L2, 65.3 µM (inactive).
Turning to `Cn1c(N)[n+](C(=O)OCc2ccccc2)c(=O)c2c1ncn2C(=O)OCc1ccccc1`, the GI50 in the test with HOP-18 is 78.9 µM (inactive); with DMS-114, 99.8 µM (inactive); in the test on LXFL 529 it was > 100 µM (inactive); with SNB-78 it was 41.5 µM (inactive); in the test with M19-MEL, > 100 µM (inactive); with DMS-273 it was > 100 µM (inactive). Besides, the GI50 in the test on KM-20L2 was > 100 µM (inactive).
With `COCN1COCN/C1=N\C#N`, the GI50 in the test with HOP-18, in the test on DMS-114, with RXF 631, in the test with XF498, in the test with LXFL 529 and with SNB-78 was > 100 µM (inactive) each time. The GI50 in the test on M19-MEL was > 100 µM (inactive); in the test with DMS-273, 98.2 µM (inactive); in the test on KM-20L2 it was > 100 µM (inactive).
For the molecule `CC(=O)OC1C/C(C)=C/[C@H](O)CC(C)/C=C/[C@@]2(C)CCC(C(C)(C)O)C12` (stereo partly specified), the GI50 with HOP-18, in the test on DMS-114, in the test with RXF 631, in the test with XF498, in the test on LXFL 529 and in the test with SNB-78 was > 100 µM (inactive) throughout. Also, the GI50 in the test on M19-MEL, in the test on DMS-273 and with KM-20L2 was > 100 µM (inactive) in each case.
On to `CC[C@]1(O)C[C@H]2CN(CCc3c([nH]c4ccccc34)[C@@](C(=O)OC)(c3cc4c(cc3OC)N(C)[C@H]3[C@@](O)(C(=O)OC)[C@H](OC(C)=O)[C@]5(CC)C=CCN6CC[C@]43[C@@H]65)C2)C1`, for which the GI50 in the test with HOP-18 was 0.573 µM (active); in the test with RXF 631, 0.00262 µM (active); in the test with XF498, 0.000402 µM (active); in the test with LXFL 529, 0.00045 µM (active); in the test on SNB-78, 0.00173 µM (active); in the test on DMS-273, 0.000375 µM (active). In addition, the GI50 in the test with KM-20L2 was 0.000397 µM (active).
